Common to all, as to type: cell-based
The target in assay [1] is T1, Polyunsaturated fatty acid 5-lipoxygenase (Rattus norvegicus, UniProt P12527).
T1 sequence (P12527 whole entry): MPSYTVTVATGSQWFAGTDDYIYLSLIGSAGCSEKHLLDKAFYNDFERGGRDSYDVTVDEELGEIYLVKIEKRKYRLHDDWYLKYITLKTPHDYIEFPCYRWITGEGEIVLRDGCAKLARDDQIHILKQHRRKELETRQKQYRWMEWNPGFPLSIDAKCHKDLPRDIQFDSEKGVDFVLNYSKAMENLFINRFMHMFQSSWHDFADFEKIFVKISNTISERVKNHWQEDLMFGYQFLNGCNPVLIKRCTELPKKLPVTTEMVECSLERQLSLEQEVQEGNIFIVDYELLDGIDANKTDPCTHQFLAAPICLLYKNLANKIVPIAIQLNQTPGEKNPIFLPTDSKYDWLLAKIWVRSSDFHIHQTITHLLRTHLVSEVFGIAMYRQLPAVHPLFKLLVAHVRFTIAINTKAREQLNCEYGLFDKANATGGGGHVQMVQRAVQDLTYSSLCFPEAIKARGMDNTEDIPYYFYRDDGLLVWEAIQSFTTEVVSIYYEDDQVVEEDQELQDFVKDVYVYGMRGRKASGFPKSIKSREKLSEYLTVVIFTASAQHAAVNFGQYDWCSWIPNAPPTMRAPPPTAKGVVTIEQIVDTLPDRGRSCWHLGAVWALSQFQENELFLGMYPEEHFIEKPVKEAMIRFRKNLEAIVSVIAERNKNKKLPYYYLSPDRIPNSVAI
Description: In vitro for inhibition of 5-lipoxygenase activity in RBL-1 cells.

In assay [2] the target is T1, Polyunsaturated fatty acid 5-lipoxygenase. The assay can be described thus: In vitro inhibition of 5-lipoxygenase activity in RBL-1 cells.
The target is the same in assay [3]. The assay can be described thus: The compound was evaluated in vitro for inhibition of 5-lipoxygenase activity in RBL-1 cells; No significant inhibitory activity up to 30 uM.
The target of assay [4] is T2, Polyunsaturated fatty acid 5-lipoxygenase (Rattus norvegicus) (UniProt P12527).
T2 sequence (whole entry): T1 sequence (P12527 whole entry)
The assay can be described thus: The compound was evaluated in vitro for inhibition of 5-lipoxygenase activity in RBL-1 cells at 100 uM.

Assay [5] addresses T1, Polyunsaturated fatty acid 5-lipoxygenase. The assay can be described thus: The compound was evaluated in vitro for inhibition of 5-lipoxygenase activity in RBL-1 cells.
Assay [6] addresses T2, Polyunsaturated fatty acid 5-lipoxygenase (Rattus norvegicus). Description: The compound was evaluated in vitro for inhibition of 5-lipoxygenase activity in RBL-1 cells at 20 uM.
The target is the same in assay [7]. The assay can be described thus: The compound was evaluated in vitro for inhibition of 5-lipoxygenase activity in RBL-1 cells at 30 uM.

The structures appear in SMILES notation. pIC50: −log10 of the molar value.

Take `O=C1c2ccccc2C(=O)C1(c1ccccc1)C1(c2ccccc2)C(=O)c2ccccc2C1=O`: in assay [1], the IC50 result is “Not Active”.

`O=C1C(=Cc2ccccc2)C(=O)c2ccccc21`: in assay [1], the IC50 result is recorded as “Not Active”.

With `CSc1ccc(C2C(=O)c3ccccc3C2=O)cc1`, the pIC50 in assay [2] was 5.57.

Take `O=C1CCCCC(=O)C1c1ccc2c(c1)OCO2`: the pIC50 in assay [2] is 4.60.

Take `O=C1c2ccccc2C(=O)C1(F)c1ccc2ccccc2c1`: the pIC50 in assay [2] is 5.70.

On to `COc1ccc(C=C2C(=O)c3ccccc3C2=O)cc1`, for which, in assay [1], the IC50 entry was “Not Active”.

With `O=C1c2ccccc2C(=O)C1(F)c1ccccc1`, the pIC50 in assay [2] is 5.77.

In turn, `CN(C)c1ccc(C2C(=O)c3ccccc3C2=O)cc1` showed a pIC50 in assay [2] of 5.35.

As to `O=C1CCCC(=O)C1c1ccccc1`, the IC50 entry in assay [1] was “Not Active”.

Regarding `O=C1CCCCC(=O)C1c1ccccc1`, the pIC50 in assay [2] was 4.39.

Consider `O=C(O)c1ccc(C2C(=O)c3ccccc3C2=O)cc1`, for which the IC50 result in assay [3] was “Not Active”.

Turning to `O=C1c2ccccc2C(=O)C1[N+](=O)[O-]`, the IC50 result in assay [1] is “Not Active”.

In the case of `C=CCC1C(=O)c2ccccc2C1=O`, the IC50 result in assay [1] is on record as “Not Active”.

Take `O=C1c2cccc3cccc(c23)C(=O)C1c1ccccc1`: the IC50 entry in assay [1] was “Not Active”.

In assay [2], `O=C1c2ccccc2C(=O)C1(Sc1ccccc1)c1ccccc1` gave a negative logarithm of the IC50 (pIC50) of 5.32.

Turning to `CC(C)(C)c1cc(C2C(=O)c3ccccc3C2=O)cc(C(C)(C)C)c1`, the pIC50 in assay [2] was 5.55.

Turning to `COc1ccc(C2C(=O)c3ccccc3C2=O)cc1` [ANISINDIONE], the pIC50 in assay [2] is 5.04.

For `O=C1c2ccccc2[C@@H](O)[C@H]1c1ccccc1`, in assay [1], the IC50 entry was “Not Active”.

Consider `O=C1CCCCCC(=O)C1c1ccccc1`, for which the inhibition in assay [4] stood at 45%.

In assay [2], `CCCCc1ccc(C2C(=O)CCCCCC2=O)cc1` gave a negative logarithm of the IC50 (pIC50) of 4.92.

`O=C1CCC(=O)C1c1ccccc1`: the IC50 entry in assay [1] is listed as “Not Active”.

Turning to `O=C1c2ccccc2C(=O)C1C1C(=O)c2ccccc2C1=O`, the pIC50 in assay [5] is 4.55.

Regarding `CCCCc1ccc(C2C(=O)c3ccccc3C2=O)cc1`, the pIC50 in assay [2] was 5.77.

As to `O=C1c2ccccc2C(=O)C1c1ccc(Cl)cc1` [CLORINDIONE], the pIC50 in assay [2] is 5.30.

Take `O=C1c2ccccc2C(=O)C1c1ccccc1` [PHENINDIONE]: the pIC50 in assay [2] is 4.82.

In turn, `O=C1c2ccccc2-c2ccccc2C(=O)C1c1ccccc1` gave an inhibition in assay [6] of 50%.

As to `O=C1CC(=O)c2ccccc21`, the IC50 entry in assay [1] is recorded as “Not Active”.

In the case of `O=C1c2ccccc2[C@H](O)[C@H]1c1ccccc1`, the IC50 result in assay [1] is reported as “Not Active”.

For `COC1=C(c2ccccc2)C(=O)c2ccccc21`, the IC50 result in assay [1] is reported as “Not Active”.

With `O=C1c2ccccc2C(=O)C1c1ccc(F)cc1` [FLUINDIONE], the pIC50 in assay [2] was 5.02.

As for `O=C1c2ccccc2C(=O)N1c1ccccc1` [N-PHENYL-PHTHALIMIDE], the IC50 entry in assay [1] is reported as “Not Active”.

Turning to `O=C1c2ccccc2C(=O)C1c1ccc2ccccc2c1`, the pIC50 in assay [2] was 5.49.

For the molecule `O=C1C(c2ccccc2)C(=O)C2CC=CCC12` (stereo not drawn), the IC50 entry in assay [1] is reported as “Not Active”.

Take `O=C1C(c2ccccc2)=C(c2ccccc2)C(=O)C1c1ccccc1`: in assay [7], the inhibition was determined as 45%.

In the case of `O=C1c2ccc(Br)cc2C(=O)C1(F)c1ccccc1` (stereo not drawn), the negative logarithm of the IC50 (pIC50) in assay [2] was 5.64.

`O=C1c2ccccc2C(=O)C1c1cccc2ccccc12` gave an inhibition in assay [7] of 14%.

With `O=C(c1ccccc1)C(C(=O)c1ccccc1)c1ccccc1`, the IC50 entry in assay [1] was “Not Active”.

In assay [2], `CSC1(c2ccccc2)C(=O)c2ccccc2C1=O` showed a pIC50 of 4.82.

As usually defined, the pIC50 is −log10 of the IC50, conventionally taken in molar units. Read a low pIC50 as a high IC50. A word on the inhibition: it is the change of the read-out against control, counted positive when it falls. High values mean a strong effect, low ones a weak effect.

The values above are taken from ChEMBL document CHEMBL1126354, “Structural analysis of 2-aryl-1,3-dione compounds as inhibitors of 5-lipoxygenase” (Bioorg Med Chem Lett, 1992).
